The record followed here is ChEMBL document CHEMBL4742395, “Substituted Pyrazole Derivatives As Selective CDK12/13 Inhibitors” (2019).

Experiment [1] deals with Cyclin-dependent kinase 7 (Homo sapiens) (UniProt P50613). The experiment can be described thus: Binding affinity to CDK7 in human Jurkat cells assessed as target occupancy after 6 hrs by spectrophotometry. The experiment is classed as cell-based.
Experiment [2] has as its target T1, Cyclin-dependent kinase 12 (Homo sapiens, UniProt Q9NYV4). The experiment can be described thus: Binding affinity to CDK12 in human Jurkat cells assessed as target occupancy after 6 hrs by spectrophotometry. The class given is cell-based.
Target sequence in this assay (Q9NYV4 whole entry, looked up): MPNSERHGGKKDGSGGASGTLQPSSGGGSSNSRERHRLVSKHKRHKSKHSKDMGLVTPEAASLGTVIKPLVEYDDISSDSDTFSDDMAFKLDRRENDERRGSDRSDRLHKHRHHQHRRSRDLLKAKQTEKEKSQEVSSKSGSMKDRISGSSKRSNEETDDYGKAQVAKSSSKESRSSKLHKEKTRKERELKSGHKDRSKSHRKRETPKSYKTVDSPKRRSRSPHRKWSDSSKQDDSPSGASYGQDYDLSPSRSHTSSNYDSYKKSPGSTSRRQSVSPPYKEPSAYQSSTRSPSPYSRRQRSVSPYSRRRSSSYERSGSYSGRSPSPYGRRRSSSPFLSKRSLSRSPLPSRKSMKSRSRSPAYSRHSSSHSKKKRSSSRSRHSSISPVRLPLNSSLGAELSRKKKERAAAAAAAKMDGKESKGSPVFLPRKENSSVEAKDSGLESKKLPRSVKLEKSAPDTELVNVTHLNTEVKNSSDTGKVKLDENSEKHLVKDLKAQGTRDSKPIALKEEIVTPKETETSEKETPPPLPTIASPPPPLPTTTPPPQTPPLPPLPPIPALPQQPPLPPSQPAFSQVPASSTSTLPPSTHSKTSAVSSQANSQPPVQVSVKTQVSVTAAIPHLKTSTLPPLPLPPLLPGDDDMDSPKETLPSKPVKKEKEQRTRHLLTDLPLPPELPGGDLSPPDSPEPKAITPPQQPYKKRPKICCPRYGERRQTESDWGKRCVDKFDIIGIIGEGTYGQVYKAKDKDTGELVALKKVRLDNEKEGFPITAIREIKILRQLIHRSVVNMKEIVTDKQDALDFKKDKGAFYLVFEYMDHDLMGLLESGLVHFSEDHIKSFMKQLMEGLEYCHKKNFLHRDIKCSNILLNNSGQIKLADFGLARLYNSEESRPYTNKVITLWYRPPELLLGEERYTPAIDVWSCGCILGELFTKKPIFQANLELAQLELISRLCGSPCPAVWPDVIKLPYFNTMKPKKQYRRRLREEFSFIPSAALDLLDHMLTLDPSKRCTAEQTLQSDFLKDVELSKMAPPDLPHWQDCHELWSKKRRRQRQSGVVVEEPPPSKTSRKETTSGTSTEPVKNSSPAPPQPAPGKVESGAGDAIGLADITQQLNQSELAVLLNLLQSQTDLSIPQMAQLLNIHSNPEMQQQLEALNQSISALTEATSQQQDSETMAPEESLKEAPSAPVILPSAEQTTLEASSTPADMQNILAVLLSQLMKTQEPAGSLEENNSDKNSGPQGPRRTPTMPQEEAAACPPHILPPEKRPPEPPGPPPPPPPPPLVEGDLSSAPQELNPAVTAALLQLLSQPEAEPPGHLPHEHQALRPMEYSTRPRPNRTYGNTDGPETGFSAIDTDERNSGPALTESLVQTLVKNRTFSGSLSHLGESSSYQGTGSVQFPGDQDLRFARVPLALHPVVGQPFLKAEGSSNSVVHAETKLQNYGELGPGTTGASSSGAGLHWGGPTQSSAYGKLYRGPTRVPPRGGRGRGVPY
The species named for experiment [3] is Homo sapiens. The experiment can be described thus: Selectivity index, ratio of target occupancy for CDK7 in human Jurkat cells to target occupancy for CDK12 in human Jurkat cells. The class given is cell-based.
Experiment [4] addresses Cyclin-dependent kinase 13 (Homo sapiens, UniProt Q14004). The experiment can be described thus: Binding affinity to CDK13 (unknown origin) by TR-FRET assay.
In experiment [5] the target is T1, Cyclin-dependent kinase 12. The experiment can be described thus: Inhibition of CDK12 (unknown origin) using ULight - 4E - BP1( Thr37 / Thr46 ) as substrate preincubated for 60 mins bu LANCE-TR-FRET assay. For orientation: Time-resolved FRET reads energy transfer from a long-lived donor to a nearby acceptor.
Target sequence in this assay (Q9NYV4 whole entry): as the sequence (Q9NYV4 whole entry, looked up) above
The species entered for experiment [6] is Homo sapiens. The experiment is described as follows: Selectivity index, ratio of IC50 for inhibition of CDK7 (unknown origin) to IC50 for inhibition of CDK12 (unknown origin).
The species named for experiment [7] is Homo sapiens. The experiment is described as follows: Selectivity index, ratio of IC50 for inhibition of CDK7 (unknown origin) to IC50 for binding affinity to CDK13 (unknown origin).

Chain of Cyclin-dependent kinase 13 (Q14004 whole entry): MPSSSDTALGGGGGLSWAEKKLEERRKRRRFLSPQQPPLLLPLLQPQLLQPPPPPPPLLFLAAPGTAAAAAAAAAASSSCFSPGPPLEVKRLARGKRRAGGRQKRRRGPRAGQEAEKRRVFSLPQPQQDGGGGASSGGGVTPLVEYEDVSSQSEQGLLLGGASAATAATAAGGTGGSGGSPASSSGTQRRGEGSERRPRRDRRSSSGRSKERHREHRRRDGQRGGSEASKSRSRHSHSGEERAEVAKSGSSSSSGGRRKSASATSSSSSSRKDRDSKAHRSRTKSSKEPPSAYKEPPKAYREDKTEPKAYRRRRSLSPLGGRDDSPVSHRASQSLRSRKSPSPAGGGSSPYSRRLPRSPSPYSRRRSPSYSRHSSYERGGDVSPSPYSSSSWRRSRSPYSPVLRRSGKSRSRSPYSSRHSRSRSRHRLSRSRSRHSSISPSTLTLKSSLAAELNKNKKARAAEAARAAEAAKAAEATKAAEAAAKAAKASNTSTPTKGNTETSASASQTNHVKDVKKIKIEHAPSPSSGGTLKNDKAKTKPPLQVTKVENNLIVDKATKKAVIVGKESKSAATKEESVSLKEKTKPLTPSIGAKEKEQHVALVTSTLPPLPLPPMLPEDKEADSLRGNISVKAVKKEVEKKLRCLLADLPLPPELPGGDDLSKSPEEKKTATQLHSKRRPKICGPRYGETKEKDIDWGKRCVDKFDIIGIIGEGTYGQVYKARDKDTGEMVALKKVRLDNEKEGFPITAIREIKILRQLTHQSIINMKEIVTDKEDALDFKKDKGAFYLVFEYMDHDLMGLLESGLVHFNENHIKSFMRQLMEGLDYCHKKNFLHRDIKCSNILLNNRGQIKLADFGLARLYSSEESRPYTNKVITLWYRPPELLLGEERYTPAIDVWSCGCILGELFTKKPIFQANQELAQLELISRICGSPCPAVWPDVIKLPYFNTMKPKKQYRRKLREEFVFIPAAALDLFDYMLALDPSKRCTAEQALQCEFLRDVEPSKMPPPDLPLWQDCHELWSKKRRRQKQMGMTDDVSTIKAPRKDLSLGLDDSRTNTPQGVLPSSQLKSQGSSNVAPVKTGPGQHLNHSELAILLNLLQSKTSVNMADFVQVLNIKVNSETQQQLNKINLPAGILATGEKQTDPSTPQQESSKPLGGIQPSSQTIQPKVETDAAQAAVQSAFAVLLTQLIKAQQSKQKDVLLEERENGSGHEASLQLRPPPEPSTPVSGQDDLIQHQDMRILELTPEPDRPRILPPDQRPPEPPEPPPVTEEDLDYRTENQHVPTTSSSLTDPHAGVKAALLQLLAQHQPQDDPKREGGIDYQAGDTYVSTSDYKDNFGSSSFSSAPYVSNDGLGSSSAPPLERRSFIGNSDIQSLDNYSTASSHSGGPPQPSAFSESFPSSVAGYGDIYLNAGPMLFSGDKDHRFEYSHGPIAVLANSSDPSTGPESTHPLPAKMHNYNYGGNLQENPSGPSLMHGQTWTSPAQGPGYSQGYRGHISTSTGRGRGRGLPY
Chain of Cyclin-dependent kinase 7 (Homo sapiens) (P50613 whole entry): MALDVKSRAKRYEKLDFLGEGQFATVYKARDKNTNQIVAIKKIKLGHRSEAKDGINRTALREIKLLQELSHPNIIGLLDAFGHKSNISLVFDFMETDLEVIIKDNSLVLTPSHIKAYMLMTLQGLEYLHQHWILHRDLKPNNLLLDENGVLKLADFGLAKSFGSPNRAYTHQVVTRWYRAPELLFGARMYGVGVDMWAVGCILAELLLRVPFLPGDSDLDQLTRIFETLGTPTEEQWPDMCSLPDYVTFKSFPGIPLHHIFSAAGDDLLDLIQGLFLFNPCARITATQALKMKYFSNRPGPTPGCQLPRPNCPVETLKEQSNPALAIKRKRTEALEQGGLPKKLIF

Consider `CC(C(=O)Nc1cc(C2CC2)[nH]n1)c1cccc(C2CCN(C(=O)/C=C/CN(C)C)CC2)c1` (stereo not given), for which the values for the Occ50 in experiment [1] and in experiment [2] were 130 nM and 0.305 µM, respectively. Further, in the experiment listed under Homo sapiens [3], the Ratio turned out to be 0.425.

As for `C=CC(=O)N1CC=C(c2ccc(CC(=O)Nc3cc(C4CC4)[nH]n3)cn2)CC1`, the Occ50 in experiment [2] worked out at 0.025 µM. The 50% inhibitory concentration (IC50) – broadly, the concentration needed to halve the response being measured – in experiment [4] is 19 nM; in experiment [5], 40 nM.

`CCN(CC)C/C=C/C(=O)N1CC=C(c2ccc([C@H](C)C(=O)Nc3cc(C4CC4)[nH]n3)cc2)CC1`: the IC50 in experiment [4] stood at 72 nM; in experiment [5], 895 nM.

Consider `C=CC(=O)N1CCC=C(c2ccc(C(C(=O)Nc3cc(C4CC4)[nH]n3)C(C)C)cc2)C1` (stereo not given), for which the 50% inhibitory concentration (IC50) came out at 279 nM in experiment [4] and 160 nM in experiment [5].

On to `C=CC(=O)N1CCC(c2ccc(C(C)C(=O)Nc3cc(C4CC4)[nH]n3)cn2)C1` (stereo not given), for which the results for the IC50 in experiment [4] and in experiment [5] were 6 nM and 55 nM, respectively.

`C[C@H](C(=O)Nc1cc(C2CC2)[nH]n1)c1ccc(C2=CCN(C(=O)/C=C/CN(C)C)CC2)cc1`: the Occ50 in experiment [1] is 1670 nM.

On to `C=CC(=O)N1CCC=C(c2ccc(CC(=O)Nc3cc(C4CC4)[nH]n3)cn2)C1`, for which, in experiment [2], the Occ50 was 0.016 µM. Moreover, the Ratio IC50 in the experiment filed under Homo sapiens [6] was found to be 75.2; in the experiment filed under Homo sapiens [7], 432. Besides, the 50% inhibitory concentration (IC50) is 4 nM in experiment [4] and 23 nM in experiment [5].

For the compound `CC#CC(=O)N1CCC=C(c2ccc(CC(=O)Nc3cc(C4CC4)[nH]n3)cn2)C1`, the results for the IC50 in experiment [4] and in experiment [5] were 5 nM and 37 nM, respectively.
